Data as given in PMC8794255, “Small molecule inhibitor of Igf2bp1 represses Kras and a pro-oncogenic phenotype in cancer cells” (RNA Biology, 2021).

Tested on: H1299 cells
Experiment: qPCR of Igf2bp1 target RNAs in H1299 cells
Assay type: cell-based, human
Method: Cells were grown for 12 hours in 12 well plates prior to incubation with the compound at different concentrations for an additional 12 or 24 hours. Total RNA was then extracted using EZ-RNA total RNA isolation kit (Biological Industries) and cDNA prepared from the RNA using the First Strand cDNA Synthesis kit (Quanta bio). Real time PCR was performed with Fast SYBR Green Master Mix (Thermo Fisher Scientific), and cDNA expression analysed with the Bio-Rad CFX Manager 3.1.

O=C(c1ccc(Cn2cnnn2)cc1)N1CCCC(Nc2ccc3c(c2)OCO3)C1 (stereo not drawn) [compound 7773]
Steady state level of Kras mRNA (H1299, 20 μM 7773, 12 hours): already reduced
Steady state levels of CD44, Kras, cMyc and SRF RNA (H1299, 20 μM 7773, 24 hours): all of the RNAs significantly reduced
Levels of control RNAs that are not targets of Igf2bp1 (H1299, 24 hours): not significantly affected
